Some test systems named below: SW-620 colon; IGROV1 ovarian; MCF7 breast; UACC-62 melanoma; HOP-92 NSCLC; HCT-116 colon; HS 578T breast; NCI-H460 lung; MDA-MB-231 breast; CCRF-CEM leukemia.
What all share (test): DTP human tumour cell line panel, 48 h

Here are results for 13 compounds from PubChem BioAssay (NCI).

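Dose response: 5 concentrations. Exposure: 48 h. Format: 96-well plates. Endpoint: linear interpolation; highest concentration if not reached. TGI: total growth inhibition.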 Where a SMILES comes first, the peptide text is derived from it. [ ]: non-standard residue; d: D form. Ava = NCCCCC(=O)O; Mpa = O=C(O)CCS

Take `CC1=C[P+](c2ccccc2)(c2ccccc2)c2ccccc2O1`: the concentration for total growth inhibition (TGI) in the experiment on SW-620 colon was more than 100 µM; in the experiment on IGROV1 ovarian, 44.9 µM; with MCF7 breast, more than 100 µM; with UACC-62 melanoma, 41.1 µM; in the experiment on HOP-92 NSCLC, 9.34 µM; with HCT-116 colon, 16.9 µM. For the same compound, the TGI is 11.6 µM in the experiment on HS 578T breast, more than 100 µM in the experiment with NCI-H460 lung and 21.6 µM with MDA-MB-231 breast.
Consider `CCN(CC)Cc1cc(N=Nc2c(O)ccc3c(N=Nc4ccc(O)c(CN(CC)CC)c4)c(O)ccc23)ccc1O`, for which the TGI in the experiment on SW-620 colon came to 15.2 µM; in the experiment with IGROV1 ovarian it was 19 µM; with MCF7 breast it was 13 µM; in the experiment with UACC-62 melanoma it was 16.2 µM; with HOP-92 NSCLC it was 22.8 µM; in the experiment on HCT-116 colon it was 4.38 µM. Further, the TGI was more than 38.7 µM in the experiment on HS 578T breast, more than 53.3 µM in the experiment on CCRF-CEM leukemia, 7.54 µM in the experiment with NCI-H460 lung and 4.52 µM with MDA-MB-231 breast.
Regarding `CCO/N=C\c1ccc2oc(-c3ccccc3)cc(=O)c2c1`, the concentration for total growth inhibition (TGI) with SW-620 colon is more than 100 µM; in the experiment on IGROV1 ovarian, 10.7 µM; in the experiment with MCF7 breast, 18 µM; with UACC-62 melanoma, 33.9 µM; with HOP-92 NSCLC, 31.5 µM; with HCT-116 colon it was 8.23 µM. Further, the concentration for total growth inhibition (TGI) with HS 578T breast was found to be 42.8 µM; in the experiment on CCRF-CEM leukemia, 26 µM; in the experiment with NCI-H460 lung, 4.19 µM; in the experiment on MDA-MB-231 breast, 13.1 µM.
With `CC(NC(=O)CCS)C(=O)NC(C)C(=O)NC(Cc1c[nH]c2ccccc12)C(=O)NC(Cc1c[nH]cn1)C(=O)NC(CO)C(=O)NC(Cc1c[nH]c2ccccc12)C(=O)NCCCCC(=O)NC(C)C(=O)NC(CCC(N)=O)C(=O)NC(CCCCN)C(=O)NC(C)C(=O)NC(CCCNC(=N)N)C(=O)NC(CCCCN)C(N)=O` (stereo unspecified) ([Mpa]AAWHSW[Ava]AQKARK-NH2; configuration not given here), the TGI in the experiment with SW-620 colon was more than 100 µM; with IGROV1 ovarian, more than 100 µM; in the experiment with MCF7 breast, more than 100 µM; with UACC-62 melanoma, 52 µM; with HOP-92 NSCLC, more than 100 µM; with HCT-116 colon, more than 100 µM. In addition, the TGI with HS 578T breast, with CCRF-CEM leukemia, in the experiment with NCI-H460 lung and in the experiment with MDA-MB-231 breast was more than 100 µM each time.
Take `CCC(C)C(Nc1c2ccccc2nc2c(C(=O)NCCN(C)C)cccc12)C(=O)O` (stereo unspecified): the TGI with SW-620 colon is more than 100 µM; in the experiment with IGROV1 ovarian, more than 100 µM; with MCF7 breast, more than 100 µM; with UACC-62 melanoma, 47.4 µM; in the experiment on HOP-92 NSCLC it was 61.1 µM; in the experiment on HCT-116 colon, more than 100 µM. Further, the TGI was 51.6 µM in the experiment with HS 578T breast, more than 100 µM in the experiment on CCRF-CEM leukemia and 65.5 µM with MDA-MB-231 breast.
Take `CCOC(=O)NC(Nc1ccc(F)cc1F)(C(F)(F)F)C(F)(F)F`: the TGI in the experiment with SW-620 colon, with IGROV1 ovarian, in the experiment with MCF7 breast, in the experiment on UACC-62 melanoma, in the experiment on HOP-92 NSCLC and in the experiment on HCT-116 colon was more than 100 µM each time. Also, the concentration for total growth inhibition (TGI) in the experiment with HS 578T breast, in the experiment on CCRF-CEM leukemia, with NCI-H460 lung and in the experiment with MDA-MB-231 breast was more than 100 µM each time.
As to `CCCCn1c(=O)[nH]c2c(N)ncnc21`, the concentration for total growth inhibition (TGI) in the experiment with SW-620 colon, with IGROV1 ovarian, in the experiment with MCF7 breast, with UACC-62 melanoma, with HOP-92 NSCLC and in the experiment with HCT-116 colon was more than 100 µM throughout. The TGI with HS 578T breast, with CCRF-CEM leukemia, in the experiment with NCI-H460 lung and with MDA-MB-231 breast was more than 100 µM in each case.
Take `Cc1cc2ncn(CC(=O)O)c2cc1C`: the TGI with SW-620 colon, with IGROV1 ovarian, in the experiment with MCF7 breast, in the experiment with UACC-62 melanoma, with HOP-92 NSCLC and in the experiment on HCT-116 colon was more than 100 µM throughout. The TGI in the experiment on HS 578T breast, in the experiment with CCRF-CEM leukemia, with NCI-H460 lung and in the experiment on MDA-MB-231 breast was more than 100 µM in each case.
With `COc1ccc(N2C(=O)C3ON(Cc4ccc(CC(N)=O)cc4)C(c4c5ccccc5c(C)c5ccccc45)C3C2=O)cc1` (stereo unspecified), the TGI was more than 100 µM in the experiment with SW-620 colon; more than 100 µM with IGROV1 ovarian; 46.6 µM in the experiment with MCF7 breast; more than 100 µM in the experiment with UACC-62 melanoma; more than 100 µM in the experiment with HOP-92 NSCLC; 56.9 µM with HCT-116 colon. The TGI was more than 100 µM with HS 578T breast, more than 100 µM in the experiment on CCRF-CEM leukemia, 30.8 µM with NCI-H460 lung and more than 100 µM in the experiment on MDA-MB-231 breast.
For the compound `O=C(COc1cc(=O)oc2ccccc12)c1ccccc1`, the concentration for total growth inhibition (TGI) in the experiment with SW-620 colon is more than 100 µM; with IGROV1 ovarian, 76.7 µM; with MCF7 breast it was more than 100 µM; with UACC-62 melanoma, 44.1 µM; in the experiment on HOP-92 NSCLC it was 33 µM; in the experiment with HCT-116 colon, 32 µM. In addition, the TGI in the experiment with HS 578T breast is 73.7 µM; in the experiment on CCRF-CEM leukemia, more than 100 µM; in the experiment on NCI-H460 lung, more than 100 µM; in the experiment on MDA-MB-231 breast, more than 100 µM.
On to `CC1=C(C)C(=O)OC(C(C)(O)C2(O)CC3OC34C3CC(O)C56OC5C=CC(=O)C6(C)C3CCC42C)C1` (stereo unspecified), for which the concentration for total growth inhibition (TGI) in the experiment with IGROV1 ovarian was 6.09 µM; in the experiment on MCF7 breast, more than 39.3 µM; in the experiment with UACC-62 melanoma, 3.15 µM; with HOP-92 NSCLC, 12 µM; in the experiment on HS 578T breast it was 16.3 µM; in the experiment with CCRF-CEM leukemia, more than 22.2 µM. In addition, the figures for the concentration for total growth inhibition (TGI) in the experiment on NCI-H460 lung and in the experiment with MDA-MB-231 breast were 4.23 µM and 13.1 µM, respectively.
Regarding `COc1ccc(SCc2cc(OC)ccc2OC)cc1`, the total growth inhibition concentration (TGI) in the experiment with SW-620 colon was more than 100 µM; in the experiment on IGROV1 ovarian, more than 100 µM; with MCF7 breast it was more than 100 µM; with UACC-62 melanoma it was more than 100 µM; with HOP-92 NSCLC, 94.3 µM; with HCT-116 colon, more than 100 µM. In addition, the TGI in the experiment on HS 578T breast is 97.7 µM; with CCRF-CEM leukemia it was more than 96.4 µM; in the experiment on NCI-H460 lung, more than 100 µM; in the experiment with MDA-MB-231 breast, more than 100 µM.
With `O=C(N/N=C\c1ccc(Cl)cc1)Nc1ccc2ccccc2c1`, the TGI with SW-620 colon was more than 100 µM; with IGROV1 ovarian it was more than 100 µM; with MCF7 breast, more than 100 µM; in the experiment on UACC-62 melanoma, more than 100 µM; with HOP-92 NSCLC, 77.7 µM; in the experiment with HCT-116 colon, more than 100 µM. Besides, the TGI in the experiment with HS 578T breast is 76.9 µM; in the experiment with CCRF-CEM leukemia, more than 100 µM; in the experiment on NCI-H460 lung, more than 100 µM; in the experiment on MDA-MB-231 breast it was more than 100 µM.

As usually defined, the TGI is the concentration giving total growth inhibition. Low values mean greater sensitivity of the cells, high ones lower sensitivity of the cells.
